From patent publication US5389621A, “Method of enhancing the anticoagulant effects of aspirin using salicylamide” (University of Medicine and Dentistry of New Jersey, priority 1994, dated 1995)
Entries after “also recorded” stand apart in the source; their conditions may differ. Blank lines part the entries; values can stand above or below the compound they belong to.

Experiment: Tissue distribution of 14C radioactivity after 14C-salicylamide
Format: in vivo, male Sprague-Dawley rats
Protocol: All animals were identified by ear punching. Food and water were provided ad libitum.
Forty-eight rats were divided into two groups.
Each group consisted of 24 rats and was further divided into 4 subgroups, 6 rats each, according to the following scheme:
The rats were fasted overnight. The drug(s) were prepared fresh, dissolved in 2.5 ml of deionized water and administered orally by gavage needle. The rats were allowed water ad libitum before and after the oral administration.
The different treatments were given according to the previous scheme and each rat received an amount of radioactivity equal to […] in the case of radioactive aspirin and 10 μCu in the case of radioactive salicylamide. For the low and high dose ASA treatments 3696 and 1848 dpm ^14 C-ASA/μg total ASA were used respectively. For SAM, 24.4 and 12.2 dpm ^14 C-SAM/ng total SAM were utilized for low and high dose treatments, respectively.
The rats were anesthetized by light diethyl ether inhalation.
The rest of the red blood cells were washed twice by adding 2 ml of physiological saline and were resuspended after each addition. The red blood cells were centrifuged at 3000 rpm (1800×g) for 10 minutes and 300 μl were pipetted in a scintillation vial for measurement of ^14 C radioactivity.
After collecting the blood sample, the rats were sacrificed immediately by a diethyl ether overdose. The following tissues were collected: liver, lung, kidney, heart, spleen, perinephric fat, brain, upper small intestine, stomach, pancreas, bone (femur and tibia), testis, skin and skeletal muscle. A sample of bone marrow was also collected (approximately20 mg).
300 mg tissue samples were placed in scintillation vials and 300 μl of 70% perchloric acid and 600 μl of 30% hydrogen peroxide were added to each vial and also to the vials containing the washed red blood cells aliquots. The vials were incubated at 75° C. for 1 hour in a shaking water bath and were tightly capped to prevent any loss of radioactivity by evaporation.
The vials were left to cool to room temperature for 15 minutes before 10 ml Aquasol-2 scintillation fluid was added to each vial. The total radioactivity was counted in a Beckman model 7500 LS spectrophotometer.

[1] = 1.5 hr, 14C-SAM 3 mg/kg, alone or with ASA 10 mg/kg
[2] = 1.5 hr, 14C-SAM 6 mg/kg, alone or with ASA 20 mg/kg

SMILES: CC(=O)Oc1ccccc1C(=O)O [ASA, acetylsalicylic acid]
- Change of tissue 14C in RBCs, bone, fat, skin, muscle, heart and others (14C-SAM/ASA 3/10 mg/kg vs 14C-SAM alone): enhanced the tissue concentration; also recorded: significant elevation
- Change of tissue 14C, high dose (14C-SAM/ASA high dose vs 14C-SAM alone, liver, lung, RBCs, and muscle or heart): significantly augmented

- Organs with the highest 14C concentration (14C-SAM alone or with ASA, low or high dose): kidney followed by the stomach
- 14C radioactivity in RBCs [1]: 103 ± 9 ngm/gm tissu
- 14C radioactivity in blood [1]: 146 ± 20 ngm/gm tissu
- 14C radioactivity in bone [1]: 60 ± 7 ngm/gm tissu
- 14C radioactivity in bone marrow [1]: 14 ± 2 ngm/50 mg bone marrow
- 14C radioactivity in brain [1]: 27 ± 5 ngm/gm tissu
- 14C radioactivity in fat [1]: 41 ± 8 ngm/gm tissu
- 14C radioactivity in heart [1]: 44 ± 5 ngm/gm tissu
- 14C radioactivity in kidney [1]: 665 ± 152 ngm/gm tissu
- 14C radioactivity in liver [1]: 100 ± 12 ngm/gm tissu
- 14C radioactivity in lung [1]: 91 ± 11 ngm/gm tissu
- 14C radioactivity in muscle [1]: 56 ± 7 ngm/gm tissu
- 14C radioactivity in pancreas [1]: 93 ± 9 ngm/gm tissu
- 14C radioactivity in plasma [1]: 147 ± 24 ngm/gm tissu
- 14C radioactivity in skin [1]: 107 ± 10 ngm/gm tissu
- 14C radioactivity in spleen [1]: 83 ± 20 ngm/gm tissu
- 14C radioactivity in stomach [1]: 550 ± 154 ngm/gm tissu
- 14C radioactivity in testis (printed TESUIS) [1]: 63 ± 7 ngm/gm tissu
- 14C radioactivity in upper small intestine [1]: 130 ± 27 ngm/gm tissu
- 14C radioactivity in washed RBCs [1]: 77 ± 10 ngm/gm tissu
- 14C radioactivity in RBCs [2]: 118 ± 22 ngm/gm tissu
- 14C radioactivity in blood [2]: 198 ± 32 ngm/gm tissu
- 14C radioactivity in bone [2]: 153 ± 38 ngm/gm tissu
- 14C radioactivity in bone marrow [2]: 29 ± 17 ngm/50 mg bone marrow
- 14C radioactivity in brain [2]: 33 ± 1 ngm/gm tissu
- 14C radioactivity in fat [2]: 130 ± 14 ngm/gm tissu
- 14C radioactivity in heart [2]: 106 ± 10 ngm/gm tissu
- 14C radioactivity in kidney [2]: 1358 ± 441 ngm/gm tissu
- 14C radioactivity in liver [2]: 136 ± 12 ngm/gm tissu
- 14C radioactivity in lung [2]: 218 ± 12 ngm/gm tissu
- 14C radioactivity in muscle [2]: 78 ± 3 ngm/gm tissu
- 14C radioactivity in pancreas [2]: 147 ± 9 ngm/gm tissu
- 14C radioactivity in plasma [2]: 237 ± 49 ngm/gm tissu
- 14C radioactivity in skin [2]: 240 ± 11 ngm/gm tissu
- 14C radioactivity in spleen [2]: 200 ± 26 ngm/gm tissu
- 14C radioactivity in stomach [2]: 832 ± 217 ngm/gm tissu
- 14C radioactivity in testis [2]: 155 ± 17 ngm/gm tissu
- 14C radioactivity in upper small intestine [2]: 268 ± 34 ngm/gm tissu
- 14C radioactivity in washed RBCs [2]: 92 ± 12 ngm/gm tissu
SMILES: N[14C](=O)c1ccccc1O [^14 C-SAM]
